Data published in patent US10987382B2, “Solanum dubium seeds and honey (extracted from bee hives in Acacia tree populated area) combination for treatment of asthma and bronchial asthma” (priority 2015, dated 2021).

Test system: Carrageenan induced paw oedema in Wister Rats
Assay: Carrageenan induced paw oedema (anti-inflammatory activity)
Format: in vivo, rat
Conditions: for % reduction in edema volume: 40 mg/kg i.p.
Procedure: And anti-inflammatory study of aqueous crude extract of S. dubuim seeds, honey and S. dubuim seeds and honey (combination) on Wister Rats (42 rats), done to evaluate the anti inflammatory effects in animals using the method of Carrageenan induced paw oedema. (Nayak and Patel, 2010).
The first group serve as control and receive normal saline (1 ml/kg, orally), the second group served as standard and were administrated standard drug diclofenac sodium (100 mg/kg i.p.). The remaining groups were treated with, the third group received honey (2 ml/kg, orally), the fourth group are treated with the S. dubium seeds (2 ml/kg orally), the fifth group are treated with combination (2 ml/kg orally), the sixth group are treated with combination (4 ml/kg orally) and group seventh treated with standard drug hydrocortisone (40 mg/kg i.p.). A mark was made on both the hind paws just below the tibio-tarsal junction. After 30 min of the above treatment an inflammatory oedema was induced in the left hind paw by inject 0.1 ml solution of Carrageenan, in the planter tissue of all the animals. The paw volume was measured at first hour and followed every hour till the fifths hour after administration of carrageenan of each group. The difference between the initial and subsequence reading gave the actual edema volume. […] 100 mg/kg.
Finally the results of the anti-inflammatory activity of the fractions of methanolic extract (144) Wister Rats. […] Also the alcoholic extract of all fractions decreased rat paw edema at the end of 5th hour. The paw volume was measured initially at 0, 1, 2, 3, 4 and 5 h after Carrageenan injection using digital paw edema meter. Percent inhibition of inflammation was calculated using the formula: % Inhibition=100(1−vt/vc). Where (vc) represents edema volume in control and (vt) edema volume in group treated with sample.

Row | SMILES | inhibition at 100 mg/kg (Rattus norvegicus, ip, 100 mg/kg i.p., after 4 hour, read-out: % inhibition of paw edema) [%] | % reduction in edema volume (after 4 hour) [%] | % reduction in edema volume (after 5 hour) [%]
1 | O=C(O)Cc1ccccc1Nc1c(Cl)cccc1Cl [diclofenac sodium] | 74.3 |  | 
2 | C[C@]12CCC(=O)C=C1CC[C@@H]1[C@@H]2[C@@H](O)C[C@@]2(C)[C@H]1CC[C@]2(O)C(=O)CO [hydrocortisone] |  | 70.39 | 76.35
